“Also recorded” adds a separate entry of the source. Like-named read-outs stand apart in the source and are kept apart here.
Assays:
[1] = Animal study: plasma concentration and AUC of cinnamic acid derivatives after intragastric BGP with or without each herbal extract; assay type: in vivo, Wistar/ST rats; conditions: rats; for AUC: intragastric, 0–24 h, mean ± SD, n = 8; for plasma concentration, BGP alone versus BGP and turmeric (in words): 24 h post-ingestion
Protocol: Wistar/ST rats (male, 7 weeks old) were purchased from Japan SLC (Shizuoka, Japan). […] The rats were quarantined and acclimatized under the above conditions for 1 week and divided into six groups (eight rats/group) according to their average body weight (240–260 g). Each test sample listed in Table 1 was dissolved in 10% propylene glycol (1 mL per rat) and administered intragastrically to the rats after an overnight fasting period with free access to water. […] The collected samples were centrifuged at 1500 g for 10 min at 4°C to separate the plasma and preserved at −80°C until further sample preparation.
Briefly, 50 μL of plasma was treated with a sulfatase/β‐glucuronidase solution (sulfatase 15 units/sample) in 100 mM sodium acetate and 5 mM ascorbate at 37°C for 1 h. Following the incubation, 850 μL of methanol was added to the samples to stop the deconjugation reaction, after which centrifugation was performed at 2000 g for 10 min at 23 ± 2°C. The supernatant was evaporated under nitrogen gas and then reconstituted in a fixed volume of methanol. The samples were filtered through a 0.22 μm PTFE membrane and then analyzed by LC–MS/MS.
Briefly, 5 μL of the sample was injected into a reversed‐phase column (Acquity UPLC BEH C18, 2.1 × 100 mm, ID. 1.7 μm; Waters, Milford, MA, USA) held at 30°C. The elution was performed using solvent A (0.1% formic acid) and solvent B (acetonitrile) at a flow rate of 0.3 mL/min. The gradient profiles were as follows: 5% B (0–2 min), 5–95% B (2–22 min), 95% B (22–25 min), and 5% B (25–30 min). Tandem mass spectrometry (MS/MS) was conducted using an ion trap mass spectrometer with a heated electrospray ion source (HESI) in both positive and negative ionization modes (scan range m/z 70–1000). […] External standard curves for cinnamic acid derivatives were generated using eight concentrations of authentic standard solutions (1, 5, 10, 50, 100, 250, 500, and 1000 ng/mL).
Quantification of cinnamic acid derivatives in the plasma was performed using the Trace Finder software version 4.1 (Thermo Scientific). The plasma concentration versus time data for the analytes obtained from each human and rat were entered into a Microsoft Excel spreadsheet. The area under the plasma concentration–time curve (AUC) was calculated using the linear trapezoidal rule, extending to the last sampling point.

[2] = target: T1, multidrug resistance 1 (MDR1), P‐gp (Homo sapiens, UniProt P08183); experiment: Bidirectional transport assay across MDCK II-MDR1 cell monolayer; assay type: in vitro ADME; conditions: for Net flux ratio: ER of MDCK II‐MDR1 divided by ER of parent MDCK II, >2 = transporter-mediated efflux
T1 construct: host or cells: MDCK II (Madin-Darby canine kidney) cells overexpressing MDR1
Protocol: The Madin‐Darby canine kidney (MDCK II) cell line and MDCK II cells overexpressing multidrug resistance 1 (MDR1) or breast cancer resistance protein (BCRP) were purchased from the Netherlands Cancer Institute (Amsterdam, Netherlands) and SOLVO Biotechnology (Szeged, Hungary), respectively. The cell lines were routinely cultured in Dulbecco's modified Eagle's medium (DMEM) containing 10% fetal bovine serum and 1% penicillin/streptomycin at 37°C in 5% CO2. All cells were seeded in a feeder tray at a density of 3–6 × 10^4 cells/well and grown for 3–4 days. On the day of the transport study, cell monolayers were washed with Hanks' balanced salt solution (HBSS) buffer containing 0.1% BSA (pH 7.4) and incubated at 37°C for 20 min. Artepillin C and drupanin dissolved in DMSO (10 mM) were added to the transport buffer (HBSS containing 10 mM HEPES, 0.2% glucose, 0.1% BSA, pH 7.4) to a final concentration of 10 μM and then loaded into the apical or basolateral chamber. After 120 min of incubation, 150 μL of the aliquots were collected from the donor and receiver chambers and mixed with an equal volume of 50% methanol. After centrifugation at 3000 rpm for 10 min at 4°C, the supernatants were filtered and subjected to LC–MS/MS analysis.
The in vitro samples were analyzed using HPLC (LC‐20A, Shimadzu, Kyoto, Japan) with a reversed‐phase column (Inertsil ODS‐3, 2.1 × 33 mm, ID. 3 μm, GL Sciences, Tokyo, Japan) held at 40°C. The mobile solvents used were water with 10 mM ammonium acetate (pH 4.0, A) and methanol (B) pumped at a flow rate of 0.4 mL/min. The following gradient was employed: 10%–90% B (0–0.5 min), 90% B (0.5–2.5 min), and 10% B (2.5–4 min). The eluent was monitored using a triple quadrupole mass spectrometer (API 4000, AB Sciex, Framingham, MA, USA) incorporating an electrospray ion source (ESI) operating in the multiple reaction monitoring mode. The ESI source was operated in negative ionization mode at 600°C with a spray voltage of −4.5 kV. The curtain gas (nitrogen), collision gas (nitrogen), nebulizer gas (whole air), and drying gas (whole air) were set at 40, 5, 50, and 70 psi, respectively. […] Artepillin C and drupanin were diluted in 50% methanol to concentrations of 1.6, 3.2, 8, 40, 200, 1000, and 2000 nM and were used as external standards. Sulfaphenazole (0.2 μM) was used as an internal standard.
The apparent permeability coefficients (Papp) for both directions, from the apical side to the basolateral side (A to B) and from the basolateral side to the apical side (B to A) in the cell monolayer, were calculated using the following equation: (1) Papp=dQ/dt/A×C0 where dQ/dt is the permeation rate (nmol/s), A is the membrane area (cm^2), and C0 is the initial concentration of the compound in the donor compartment (nM). The efflux ratios (ER) in the B‐to‐A and A‐to‐B directions were determined using the following equation: (2) ER=PappBtoA/PappAtoB
Net flux ratios were calculated by dividing the ER obtained from MDCK II‐MDR1 (or BCRP) cells by that obtained from the parent MDCK II cells.

[3] = BGP co-administered with gotu kola extract
[4] = BGP co-administered with turmeric extract
[5] = 10 μM, 120 min, mean ± SE, n = 2

Row | AUC ([1]; male, Wistar/ST, rat, plasma, po, BGP 75 mg/kg co-administered with gotu kola extract 250 mg/kg, read-out: AUC) [ng·h/mL] | AUC ([1]; male, Wistar/ST, rat, plasma, po, BGP 75 mg/kg co-administered with turmeric extract 250 mg/kg, read-out: AUC) [ng·h/mL] | fold increase of AUC versus BGP administered alone [1, 3] [fold] | SMILES | plasma concentration, BGP alone versus BGP and turmeric (in words) [1] | change of plasma concentration versus BGP alone (in words) ([1]; BGP + turmeric extract, at 30 min and 3 h) | change of AUC versus BGP alone (in words) [1, 3] | fold increase of AUC versus BGP administered alone [1, 4] [fold] | Net flux ratio [2] | AUC ([1]; BGP 75 mg/kg administered alone) [ng·h/mL] | AUC ([1]; BGP 75 mg/kg co-administered with turmeric extract 250 mg/kg) [ng·h/mL] | peaks of the plasma concentration–time curve ([1]; BGP + turmeric extract) | fold increase of plasma concentration versus BGP alone ([1]; BGP + turmeric extract, 30 min after administration) [fold] | fold increase of plasma concentration versus BGP alone ([1]; BGP + turmeric extract, 6 h after administration) [fold] | change of AUC versus BGP alone (in words) ([1]; BGP co-administered with coffee fruit extract) | change of AUC versus BGP alone (in words) ([1]; BGP co-administered with ginkgo leaf extract) | change of AUC versus BGP alone (in words) ([1]; BGP co-administered with soybean extract) | Papp MDCK II‐MDR1 A to B [2, 5] | Papp MDCK II‐MDR1 B to A [2, 5] | Flux ratio (MDCK II‐MDR1) (efflux ratio, ER) ([2]; 10 μM, Papp B to A / Papp A to B)
1 | 629 ± 167 | 627 ± 148 | 1.3 | CC(C)=CCc1cc(/C=C/C(=O)O)ccc1O [drupanin] | did not differ | significant increases or increasing trends | tended to increase | 1.3 | 0.9 | – | – | – | – | – | – | – | – | – | – | –
2 | – | – | – | CC(C)=CCc1cc(/C=C/C(=O)O)cc(CC=C(C)C)c1O [artepillin C] | did not differ | – | did not significantly alter; also recorded: not changed | 1.4 | 1.1 | 1018.0 ± 184.5 | 1377.2 ± 320.2 | two distinct peaks at 30 min and 6 h | 1.7 | 1.5 | did not significantly alter | did not significantly alter | did not significantly alter | 13.3 ± 0.7 10^−6 cm/s | 11.4 ± 0.8 10^−6 cm/s | 0.9

From publication PMC11266932, “Enhanced absorption of prenylated cinnamic acid derivatives from Brazilian green propolis by turmeric in humans and rats” (Food Science & Nutrition, 2024)
